Source: patent US7598245B2 (Vertex Pharmaceuticals Incorporated, priority 2003, dated 2009)
Read-outs that look alike come from different tables or passages of the source.

Columns and labels:
FLT-3 = molecular target: T1, FLT-3 (Homo sapiens, UniProt P36888); experiment: Inhibition of FLT-3, radiometric filter-binding assay; assay type: biochemical; conditions: 90 μM ATP, pE4Y substrate
T1 construct: 0.02% BSA and 3 nM FLT-3
T1 sequence (P36888 27-993): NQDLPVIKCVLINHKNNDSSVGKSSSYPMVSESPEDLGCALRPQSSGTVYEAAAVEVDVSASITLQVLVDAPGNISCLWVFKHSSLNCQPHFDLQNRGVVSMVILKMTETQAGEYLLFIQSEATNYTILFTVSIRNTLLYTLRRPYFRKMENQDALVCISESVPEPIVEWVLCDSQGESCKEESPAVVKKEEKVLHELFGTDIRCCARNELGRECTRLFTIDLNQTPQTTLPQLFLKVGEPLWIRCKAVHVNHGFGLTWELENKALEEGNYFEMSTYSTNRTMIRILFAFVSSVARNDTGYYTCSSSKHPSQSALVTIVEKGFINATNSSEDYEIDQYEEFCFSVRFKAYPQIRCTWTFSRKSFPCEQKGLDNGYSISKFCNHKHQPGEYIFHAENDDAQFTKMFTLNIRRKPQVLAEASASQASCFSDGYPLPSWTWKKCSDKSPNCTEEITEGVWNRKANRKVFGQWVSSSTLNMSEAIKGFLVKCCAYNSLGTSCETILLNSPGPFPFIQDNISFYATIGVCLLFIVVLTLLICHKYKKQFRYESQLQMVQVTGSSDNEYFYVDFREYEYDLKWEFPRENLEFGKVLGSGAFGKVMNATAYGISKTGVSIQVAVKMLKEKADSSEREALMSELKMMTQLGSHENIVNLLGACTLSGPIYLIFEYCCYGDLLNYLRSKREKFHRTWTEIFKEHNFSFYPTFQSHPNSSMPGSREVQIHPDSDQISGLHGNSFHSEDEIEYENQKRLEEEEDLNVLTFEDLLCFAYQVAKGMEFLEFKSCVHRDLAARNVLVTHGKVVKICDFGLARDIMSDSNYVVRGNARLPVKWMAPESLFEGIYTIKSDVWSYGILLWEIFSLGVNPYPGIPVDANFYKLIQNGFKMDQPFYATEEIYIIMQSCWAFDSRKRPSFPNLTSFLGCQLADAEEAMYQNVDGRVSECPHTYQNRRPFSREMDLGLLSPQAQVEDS
Procedure: Compounds were screened for their ability to inhibit FLT-3 activity using a radiometric filter-binding assay. This assay monitors the ^33P incorporation into a substrate poly(Glu, Tyr) 4:1 (pE4Y). Reactions were carried out in a solution containing 100 mM HEPES (pH 7.5), 10 mM MgCl2, 25 mM NaCl, 1 mM DTT, 0.01% BSA and 2.5% DMSO. Final substrate concentrations in the assay were 90 μM ATP and 0.5 mg/mL pE4Y (both from Sigma Chemicals, St Louis, Mo.). The final concentration of compounds is generally between 0.01 and 5 μM. Typically, a 12-point titration was conducted by preparing serial dilutions from 10 mM DMSO stock of test compound. Reactions were carried out at room temperature.
Two assay solutions were prepared. Solution 1 contains 100 mM HEPES (pH 7.5), 10 mM MgCl2, 25 mM NaCl, 1 mg/ml pE4Y and 180 μM ATP (containing 0.3 μCi of [γ-^33P]ATP for each reaction). Solution 2 contains 100 mM HEPES (pH 7.5), 10 mM MgCl2, 25 mM NaCl, 2 mM DTT, 0.02% BSA and 3 nM FLT-3. The assay was run on a 96 well plate by mixing 50 μL each of Solution1 and 2.5 mL of the test compounds. The reaction was initiated with Solution2. After incubation for 20 minutes at room temperature, the reaction was stopped with 50 μL of 20% TCA containing 0.4 mM of ATP. All of the reaction volume was then transferred to a filter plate and washed with 5% TCA by a Harvester9600 from TOMTEC (Hamden, Conn.). The amount of ^33P incorporation into pE4y was analyzed by a Packard TopCount Microplate Scintillation Counter (Meriden, Conn.). The data was fitted using Prism software to get an IC50 or Ki.

KDR = KDR (Homo sapiens, UniProt P35968); experiment: Inhibition of KDR, coupled enzyme assay; assay type: biochemical; conditions: 300 μM ATP, 37° C.
KDR, sequence (P35968 20-1356): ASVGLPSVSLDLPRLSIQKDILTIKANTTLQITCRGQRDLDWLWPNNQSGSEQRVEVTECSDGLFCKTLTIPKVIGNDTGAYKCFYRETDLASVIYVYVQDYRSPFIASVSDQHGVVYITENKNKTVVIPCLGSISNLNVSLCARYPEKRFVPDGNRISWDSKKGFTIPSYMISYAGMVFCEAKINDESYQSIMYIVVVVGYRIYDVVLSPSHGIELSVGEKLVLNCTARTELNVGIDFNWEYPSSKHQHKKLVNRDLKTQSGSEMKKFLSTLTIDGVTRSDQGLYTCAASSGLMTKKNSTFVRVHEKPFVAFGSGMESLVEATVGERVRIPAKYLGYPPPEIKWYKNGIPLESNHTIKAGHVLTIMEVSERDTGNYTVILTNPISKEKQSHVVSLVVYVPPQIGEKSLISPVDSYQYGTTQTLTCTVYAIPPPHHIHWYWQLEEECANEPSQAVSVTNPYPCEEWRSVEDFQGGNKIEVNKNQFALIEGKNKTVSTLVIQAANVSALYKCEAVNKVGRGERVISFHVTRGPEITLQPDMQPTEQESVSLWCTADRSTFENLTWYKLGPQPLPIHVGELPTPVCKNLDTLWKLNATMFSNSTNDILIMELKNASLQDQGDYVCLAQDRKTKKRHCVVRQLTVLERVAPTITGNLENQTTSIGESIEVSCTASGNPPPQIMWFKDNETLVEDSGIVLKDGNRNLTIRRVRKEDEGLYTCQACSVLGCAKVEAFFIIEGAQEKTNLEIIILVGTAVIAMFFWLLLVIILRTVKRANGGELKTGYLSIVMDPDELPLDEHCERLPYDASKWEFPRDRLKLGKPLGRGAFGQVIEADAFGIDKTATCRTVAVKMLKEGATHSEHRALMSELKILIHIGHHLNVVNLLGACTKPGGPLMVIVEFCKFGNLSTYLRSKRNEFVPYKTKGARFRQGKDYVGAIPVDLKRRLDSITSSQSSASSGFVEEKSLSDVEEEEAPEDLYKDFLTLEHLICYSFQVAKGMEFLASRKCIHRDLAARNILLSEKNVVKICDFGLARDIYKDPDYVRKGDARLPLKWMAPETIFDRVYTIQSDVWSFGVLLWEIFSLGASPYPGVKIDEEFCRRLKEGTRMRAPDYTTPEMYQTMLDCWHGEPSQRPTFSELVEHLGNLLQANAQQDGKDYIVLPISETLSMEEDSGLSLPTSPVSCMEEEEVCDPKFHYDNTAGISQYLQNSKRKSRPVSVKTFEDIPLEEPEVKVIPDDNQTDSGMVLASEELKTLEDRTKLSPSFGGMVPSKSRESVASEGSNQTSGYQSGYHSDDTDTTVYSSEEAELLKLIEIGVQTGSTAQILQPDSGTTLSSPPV
Procedure: Compounds were screened for their ability to inhibit KDR using a standard coupled enzyme assay (Fox et al., Protein Sci., (1998) 7, 2249). Assays were carried out in a mixture of 200 mM HEPES 7.5, 10 mM MgCl2, 25 mM NaCl, 1 mM DTT and 1.5% DMSO. Final substrate concentrations in the assay were 300 μM ATP (Sigma Chemicals) and 10 μM poly E4Y (Sigma). Assays were carried out at 37° C. and 30 nM KDR. Final concentrations of the components of the coupled enzyme system were 2.5 mM phosphoenolpyruvate, 200 μM NADH, 30 μg/ML pyruvate kinase and 10 μg/ml lactate dehydrogenase.
An assay stock buffer solution was prepared containing all of the reagents listed above, with the exception of ATP and the test compound of interest. 177 μl of the stock solution was placed in a 96 well plate followed by addition of 3 μl of 2 mM DMSO stock containing the test compound (final compound concentration 30 μM). The plate was preincubated for about 10 minutes at 37° C. and the reaction initiated by addition of 20 μl of ATP (final concentration 300 μM). Rates of reaction were obtained using a Molecular Devices plate reader (Sunnyvale, Calif.) over a 5 minute read time at 37° C.

[1] = given as IC50 or Ki, read-out: IC50 or Ki values (FLT-3)

Ki (FLT-3; [1]) | Ki (FLT-3; read-out: Ki values (FLT-3)) | Ki (KDR) | Compound
< 0.1 µM | 0.001 to 0.03 µM | – | COc1cc(Nc2ncn(-c3ccccc3)n2)cc(OC)c1OC [Compound I-42]
< 0.1 µM | 0.001 to 0.03 µM | – | COc1cc(Nc2ncn(-c3ccc(C#N)cc3)n2)cc(OC)c1OC [Compound I-43]
< 0.1 µM | 0.001 to 0.03 µM | – | c1ccc(-n2cnc(Nc3ccc4c(c3)OCCO4)n2)cc1 [Compound I-44]
< 0.1 µM | 0.001 to 0.03 µM | – | CCOc1cccc(Nc2ncn(-c3ccccc3)n2)c1 [Compound I-45]
< 0.1 µM | 0.001 to 0.03 µM | – | CC(C)Oc1cccc(Nc2ncn(-c3ccccc3)n2)c1 [Compound I-46]
< 0.1 µM | 0.03 to 0.2 µM | – | CCOc1ccc(Nc2ncn(-c3ccccc3)n2)cc1 [Compound I-47]
– | < 0.06 µM | < 0.1 µM | c1ccc(Nc2ncn(-c3ccnc(N4CCCCC4)c3)n2)cc1 [Compound I-49, phenyl-[1-(3,4,5,6-tetrahydro-2H-[1,2′]bipyridinyl-4′-yl)-1H-[1,2,4]triazol-3-yl]-amine]
– | 0.001 to 0.03 µM | 0.1 to 1 µM | c1ccc(Nc2ncn(-c3ccnc(NC4CCCCC4)c3)n2)cc1 [Compound I-50]
– | < 0.06 µM | < 0.1 µM | CN(CCO)c1cc(-n2cnc(Nc3ccccc3)n2)ccn1 [Compound I-51]
– | – | < 0.1 µM | c1ccc(Nc2ncn(-c3ccnc(N4CCCCCCC4)c3)n2)cc1 [Compound I-52]
– | – | 0.1 to 1 µM | CN(C)CCCN(C)c1cc(-n2cnc(Nc3ccccc3)n2)ccn1 [Compound I-53]
– | – | < 0.1 µM | CCN(CCO)c1cc(-n2cnc(Nc3ccccc3)n2)ccn1 [Compound I-54]
– | 0.001 to 0.03 µM | 0.1 to 1 µM | CN(Cc1ccccc1)c1cc(-n2cnc(Nc3ccccc3)n2)ccn1 [Compound I-55]
– | 0.001 to 0.03 µM | < 0.1 µM | CC1CCCN1c1cc(-n2cnc(Nc3ccccc3)n2)ccn1 (centres unmarked) [Compound I-56]
– | 0.001 to 0.03 µM | < 0.1 µM | CN(Cc1cccnc1)c1cc(-n2cnc(Nc3ccccc3)n2)ccn1 [Compound I-57]
– | 0.001 to 0.03 µM | < 0.1 µM | CCCN(CCO)c1cc(-n2cnc(Nc3ccccc3)n2)ccn1 [Compound I-58]
– | 0.001 to 0.03 µM | < 0.1 µM | COCCN(C)c1cc(-n2cnc(Nc3ccccc3)n2)ccn1 [Compound I-59, (2-methoxy-ethyl)-methyl-[4-(3-phenylamino-[1,2,4]triazol-1-yl)-pyridin-2-yl]-amine]
– | 0.03 to 0.2 µM | > 1 µM | CCN(CC)CCNc1cc(-n2cnc(Nc3ccccc3)n2)ccn1 [Compound I-60]
– | – | 0.1 to 1 µM | CN1C(C)(C)CC(Nc2cc(-n3cnc(Nc4ccccc4)n3)ccn2)CC1(C)C [Compound I-61]
– | 0.001 to 0.03 µM | < 0.1 µM | CC(C)CCN(C)c1cc(-n2cnc(Nc3ccccc3)n2)ccn1 [Compound I-62, methyl-(3-methyl-butyl)-[4-(3-phenylamino-[1,2,4]triazol-1-yl)-pyridin-2-yl]-amine]
– | > 0.2 µM | > 1 µM | O=c1[nH]c2ccccc2n1C1CCN(c2cc(-n3cnc(Nc4ccccc4)n3)ccn2)CC1 [Compound I-63]

Ki (FLT-3; [1]) | Ki (FLT-3; read-out: Ki values (FLT-3)) | Ki (KDR) | Compound
– | > 0.2 µM | > 1 µM | O=C(C1CCCO1)N1CCN(c2cc(-n3cnc(Nc4ccccc4)n3)ccn2)CC1 (centres unmarked) [Compound I-64]
– | – | 0.1 to 1 µM | OC[C@H]1CCCN(c2cc(-n3cnc(Nc4ccccc4)n3)ccn2)C1 [Compound I-65]
– | < 0.06 µM | 0.1 to 1 µM | CC(=O)N1CCCN(c2cc(-n3cnc(Nc4ccccc4)n3)ccn2)CC1 [Compound I-66]
– | 0.03 to 0.2 µM | 0.1 to 1 µM | CCC(=O)N1CCCN(c2cc(-n3cnc(Nc4ccccc4)n3)ccn2)CC1 [Compound I-67]
– | 0.03 to 0.2 µM | > 1 µM | CCCC(=O)N1CCCN(c2cc(-n3cnc(Nc4ccccc4)n3)ccn2)CC1 [Compound I-68]
– | 0.03 to 0.2 µM | > 1 µM | CC(C)C(=O)N1CCCN(c2cc(-n3cnc(Nc4ccccc4)n3)ccn2)CC1 [Compound I-69]
– | – | > 1 µM | CC(C)CC(=O)N1CCCN(c2cc(-n3cnc(Nc4ccccc4)n3)ccn2)CC1 [Compound I-70]
– | 0.03 to 0.2 µM | 0.1 to 1 µM | COCC(=O)N1CCCN(c2cc(-n3cnc(Nc4ccccc4)n3)ccn2)CC1 [Compound I-71]
– | < 0.06 µM | 0.1 to 1 µM | N#CCC(=O)N1CCCN(c2cc(-n3cnc(Nc4ccccc4)n3)ccn2)CC1 [Compound I-72]
– | < 0.06 µM | < 0.1 µM | c1ccc(Nc2ncn(-c3ccnc(N4CCCCCC4)c3)n2)cc1 [Compound I-73]
– | < 0.06 µM | < 0.1 µM | CC(=O)N1[C@H](C)CN(c2cc(-n3cnc(Nc4ccccc4)n3)ccn2)C[C@@H]1C [Compound I-74]
– | 0.03 to 0.2 µM | < 0.1 µM | CCOC(=O)c1ccc(Nc2ncn(-c3ccnc(N4C[C@@H](C)N(C(C)=O)[C@@H](C)C4)c3)n2)cc1 [Compound I-75]
– | 0.03 to 0.2 µM | 0.1 to 1 µM | CCOC(=O)c1ccc(Nc2ncn(-c3ccnc(N4CCCN(C(C)=O)CC4)c3)n2)cc1 [Compound I-76]
– | < 0.06 µM | 0.1 to 1 µM | CC(=O)N1[C@H](C)CN(c2cc(-n3cnc(Nc4ccc(NC(=O)N(C)C)cc4)n3)ccn2)C[C@@H]1C [Compound I-77, 3-(4-{1-[2-(4-Acetyl-3,5-dimethyl-piperazin-1-yl)-pyridin-4-yl]-1H-[1,2,4]triazol-3-ylamino}-phenyl)-1,1-dimethyl-urea]
– | < 0.06 µM | < 0.1 µM | COC(=O)Nc1ccc(Nc2ncn(-c3ccnc(N4C[C@@H](C)N(C(C)=O)[C@@H](C)C4)c3)n2)cc1 [Compound I-78]
– | < 0.06 µM | < 0.1 µM | CC(=O)N1[C@H](C)CN(c2cc(-n3cnc(Nc4ccc(NC(=O)C(F)(F)F)cc4)n3)ccn2)C[C@@H]1C [Compound I-79]
– | < 0.06 µM | 0.1 to 1 µM | CC(=O)N1[C@H](C)CN(c2cc(-n3cnc(Nc4ccc(NC(=O)c5cccs5)cc4)n3)ccn2)C[C@@H]1C [Compound I-80]
– | < 0.06 µM | < 0.1 µM | CC(=O)N1[C@H](C)CN(c2cc(-n3cnc(Nc4ccc(NC(=O)c5ccco5)cc4)n3)ccn2)C[C@@H]1C [Compound I-81, Furan-2-carboxylic acid (4-{1-[2-(4-acetyl-3,5-dimethyl-piperazin-1-yl)-pyridin-4-yl]-1H-[1,2,4]triazol-3-ylamino}-phenyl)-amide]
– | – | 0.1 to 1 µM | O=C(Nc1cc(-n2cnc(Nc3ccccc3)n2)ccn1)C1CCCCC1 [Compound I-93]
– | 0.03 to 0.2 µM | – | CN1CCN(c2ccc(Nc3ncn(-c4ccccc4)n3)cn2)CC1 [Compound I-135]
